Test results: ChEMBL document CHEMBL3232845 (Bioorg Med Chem Lett, 2014)

How the values were obtained:
[1] = Apparent permeability of the compound from apical to basolateral direction in pig LLC-PK1 cells; format: ADME, cell-based, Sus scrofa
[2] = Volume of distribution in mouse; format: ADME, organism-based; settings: in vivo
[3] = Antitumor activity against human LOX cells expressing B-Raf V600E mutant xenografted in nude mouse assessed as tumor growth inhibition at 30 mg/kg qd for 4 days measured on day 8; format: functional; settings: read-out: TGI
[4] = target: RAC-gamma serine/threonine-protein kinase (Homo sapiens) (UniProt Q9Y243); assay: Inhibition of human AKT3 assessed as enzyme activity at 1 uM relative to control; parameters: scale not given: the % may be the effect or the level left
Chain of RAC-gamma serine/threonine-protein kinase (Homo sapiens) (Q9Y243 whole entry): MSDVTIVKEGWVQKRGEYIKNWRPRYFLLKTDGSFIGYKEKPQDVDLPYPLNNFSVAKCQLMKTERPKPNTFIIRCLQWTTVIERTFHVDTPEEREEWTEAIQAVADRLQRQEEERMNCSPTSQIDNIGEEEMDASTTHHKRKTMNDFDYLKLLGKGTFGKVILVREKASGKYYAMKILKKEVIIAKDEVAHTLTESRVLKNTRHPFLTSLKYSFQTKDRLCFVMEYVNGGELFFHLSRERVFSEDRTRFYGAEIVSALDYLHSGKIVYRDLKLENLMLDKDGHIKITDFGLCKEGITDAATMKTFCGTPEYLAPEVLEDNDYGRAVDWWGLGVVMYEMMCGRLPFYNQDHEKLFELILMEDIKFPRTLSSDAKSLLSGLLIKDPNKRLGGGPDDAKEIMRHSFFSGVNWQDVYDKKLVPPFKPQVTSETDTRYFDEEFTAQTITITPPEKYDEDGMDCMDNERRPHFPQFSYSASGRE

[5] = target: ALK tyrosine kinase receptor (Homo sapiens) (UniProt Q9UM73); assay: Inhibition of human ALK assessed as enzyme activity at 1 uM relative to control; parameters: scale not given: the % may be the effect or the level left
[6] = target: AMP-activated protein kinase (AMPK) alpha-1/beta-1/gamma-1 (Homo sapiens) (UniProt P54619+Q9Y478+Q13131); assay: Inhibition of human AMPKA1/B1/G1 assessed as enzyme activity at 1 uM relative to control; format: protein-complex assay; parameters: scale not given: the % may be the effect or the level left
[7] = target: Tyrosine-protein kinase Blk (Homo sapiens) (UniProt P51451); assay: Inhibition of human BLK assessed as enzyme activity at 1 uM relative to control; parameters: scale not given: the % may be the effect or the level left
Chain of Tyrosine-protein kinase Blk (Homo sapiens) (P51451 2-505 limits assumed): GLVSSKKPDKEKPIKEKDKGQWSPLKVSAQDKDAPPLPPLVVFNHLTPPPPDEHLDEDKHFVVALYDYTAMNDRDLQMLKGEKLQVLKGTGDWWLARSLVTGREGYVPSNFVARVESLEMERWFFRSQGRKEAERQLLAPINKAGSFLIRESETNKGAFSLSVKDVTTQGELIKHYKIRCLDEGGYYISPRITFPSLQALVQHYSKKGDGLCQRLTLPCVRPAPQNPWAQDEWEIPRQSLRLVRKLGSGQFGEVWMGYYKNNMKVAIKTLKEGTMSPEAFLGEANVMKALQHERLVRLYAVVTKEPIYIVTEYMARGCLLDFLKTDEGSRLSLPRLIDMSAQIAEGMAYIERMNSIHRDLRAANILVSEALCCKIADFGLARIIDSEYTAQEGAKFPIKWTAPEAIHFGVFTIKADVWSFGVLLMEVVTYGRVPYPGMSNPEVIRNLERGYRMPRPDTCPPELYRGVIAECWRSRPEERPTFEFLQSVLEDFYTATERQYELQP

[8] = target: Calcium/calmodulin-dependent protein kinase type 1 (Homo sapiens) (UniProt Q14012); assay: Inhibition of human CAMK1 assessed as enzyme activity at 1 uM relative to control; parameters: scale not given: the % may be the effect or the level left
[9] = target: Casein kinase I isoform gamma-2 (Homo sapiens) (UniProt P78368); assay: Inhibition of human CK1gamma2 assessed as enzyme activity at 1 uM relative to control; parameters: scale not given: the % may be the effect or the level left
[10] = target: Serine/threonine-protein kinase DCLK2 (Homo sapiens) (UniProt Q8N568); assay: Inhibition of human DCAMKL2 assessed as enzyme activity at 1 uM relative to control; parameters: scale not given: the % may be the effect or the level left
[11] = target: Myotonin-protein kinase (Homo sapiens) (UniProt Q09013); assay: Inhibition of human DMPK assessed as enzyme activity at 1 uM relative to control; parameters: scale not given: the % may be the effect or the level left
Chain of Myotonin-protein kinase (Homo sapiens) (Q09013 whole entry): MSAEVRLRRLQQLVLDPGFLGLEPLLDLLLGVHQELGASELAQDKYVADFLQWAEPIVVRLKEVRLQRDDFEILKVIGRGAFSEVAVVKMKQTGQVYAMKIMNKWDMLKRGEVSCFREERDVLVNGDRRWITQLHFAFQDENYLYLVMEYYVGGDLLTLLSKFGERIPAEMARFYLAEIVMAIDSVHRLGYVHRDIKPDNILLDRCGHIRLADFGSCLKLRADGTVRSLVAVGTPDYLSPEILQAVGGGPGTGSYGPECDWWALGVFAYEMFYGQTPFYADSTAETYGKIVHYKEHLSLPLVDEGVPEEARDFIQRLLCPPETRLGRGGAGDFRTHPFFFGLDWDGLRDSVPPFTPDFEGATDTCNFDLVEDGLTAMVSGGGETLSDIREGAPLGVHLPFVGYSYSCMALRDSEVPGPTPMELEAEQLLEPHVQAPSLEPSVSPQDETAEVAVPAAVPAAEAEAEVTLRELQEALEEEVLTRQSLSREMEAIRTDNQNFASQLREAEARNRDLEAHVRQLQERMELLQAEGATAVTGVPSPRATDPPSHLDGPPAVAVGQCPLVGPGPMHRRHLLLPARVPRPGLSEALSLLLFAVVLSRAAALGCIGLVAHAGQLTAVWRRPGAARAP

[12] = target: Serine/threonine-protein kinase 17A (Homo sapiens) (UniProt Q9UEE5); assay: Inhibition of human DRAK1 assessed as enzyme activity at 1 uM relative to control; parameters: scale not given: the % may be the effect or the level left
[13] = target: Mitogen-activated protein kinase 3 (Homo sapiens) (UniProt P27361); assay: Inhibition of human ERK1 assessed as enzyme activity at 1 uM relative to control; parameters: scale not given: the % may be the effect or the level left
[14] = target: Mitogen-activated protein kinase 1 (Homo sapiens) (UniProt P28482); assay: Inhibition of human ERK2 assessed as enzyme activity at 1 uM relative to control; parameters: scale not given: the % may be the effect or the level left
[15] = target: Ephrin type-A receptor 1 (Homo sapiens) (UniProt P21709); assay: Inhibition of human EphA1 assessed as enzyme activity at 1 uM relative to control; parameters: scale not given: the % may be the effect or the level left
[16] = target: Proto-oncogene tyrosine-protein kinase Src (Homo sapiens) (UniProt P12931); assay: Inhibition of human Src assessed as enzyme activity at 1 uM relative to control; parameters: scale not given: the % may be the effect or the level left
[17] = target: Serine/threonine-protein kinase WNK2 (Homo sapiens) (UniProt Q9Y3S1); assay: Inhibition of human WNK2 assessed as enzyme activity at 1 uM relative to control; parameters: scale not given: the % may be the effect or the level left
Chain of Serine/threonine-protein kinase WNK2 (Homo sapiens) (Q9Y3S1 whole entry): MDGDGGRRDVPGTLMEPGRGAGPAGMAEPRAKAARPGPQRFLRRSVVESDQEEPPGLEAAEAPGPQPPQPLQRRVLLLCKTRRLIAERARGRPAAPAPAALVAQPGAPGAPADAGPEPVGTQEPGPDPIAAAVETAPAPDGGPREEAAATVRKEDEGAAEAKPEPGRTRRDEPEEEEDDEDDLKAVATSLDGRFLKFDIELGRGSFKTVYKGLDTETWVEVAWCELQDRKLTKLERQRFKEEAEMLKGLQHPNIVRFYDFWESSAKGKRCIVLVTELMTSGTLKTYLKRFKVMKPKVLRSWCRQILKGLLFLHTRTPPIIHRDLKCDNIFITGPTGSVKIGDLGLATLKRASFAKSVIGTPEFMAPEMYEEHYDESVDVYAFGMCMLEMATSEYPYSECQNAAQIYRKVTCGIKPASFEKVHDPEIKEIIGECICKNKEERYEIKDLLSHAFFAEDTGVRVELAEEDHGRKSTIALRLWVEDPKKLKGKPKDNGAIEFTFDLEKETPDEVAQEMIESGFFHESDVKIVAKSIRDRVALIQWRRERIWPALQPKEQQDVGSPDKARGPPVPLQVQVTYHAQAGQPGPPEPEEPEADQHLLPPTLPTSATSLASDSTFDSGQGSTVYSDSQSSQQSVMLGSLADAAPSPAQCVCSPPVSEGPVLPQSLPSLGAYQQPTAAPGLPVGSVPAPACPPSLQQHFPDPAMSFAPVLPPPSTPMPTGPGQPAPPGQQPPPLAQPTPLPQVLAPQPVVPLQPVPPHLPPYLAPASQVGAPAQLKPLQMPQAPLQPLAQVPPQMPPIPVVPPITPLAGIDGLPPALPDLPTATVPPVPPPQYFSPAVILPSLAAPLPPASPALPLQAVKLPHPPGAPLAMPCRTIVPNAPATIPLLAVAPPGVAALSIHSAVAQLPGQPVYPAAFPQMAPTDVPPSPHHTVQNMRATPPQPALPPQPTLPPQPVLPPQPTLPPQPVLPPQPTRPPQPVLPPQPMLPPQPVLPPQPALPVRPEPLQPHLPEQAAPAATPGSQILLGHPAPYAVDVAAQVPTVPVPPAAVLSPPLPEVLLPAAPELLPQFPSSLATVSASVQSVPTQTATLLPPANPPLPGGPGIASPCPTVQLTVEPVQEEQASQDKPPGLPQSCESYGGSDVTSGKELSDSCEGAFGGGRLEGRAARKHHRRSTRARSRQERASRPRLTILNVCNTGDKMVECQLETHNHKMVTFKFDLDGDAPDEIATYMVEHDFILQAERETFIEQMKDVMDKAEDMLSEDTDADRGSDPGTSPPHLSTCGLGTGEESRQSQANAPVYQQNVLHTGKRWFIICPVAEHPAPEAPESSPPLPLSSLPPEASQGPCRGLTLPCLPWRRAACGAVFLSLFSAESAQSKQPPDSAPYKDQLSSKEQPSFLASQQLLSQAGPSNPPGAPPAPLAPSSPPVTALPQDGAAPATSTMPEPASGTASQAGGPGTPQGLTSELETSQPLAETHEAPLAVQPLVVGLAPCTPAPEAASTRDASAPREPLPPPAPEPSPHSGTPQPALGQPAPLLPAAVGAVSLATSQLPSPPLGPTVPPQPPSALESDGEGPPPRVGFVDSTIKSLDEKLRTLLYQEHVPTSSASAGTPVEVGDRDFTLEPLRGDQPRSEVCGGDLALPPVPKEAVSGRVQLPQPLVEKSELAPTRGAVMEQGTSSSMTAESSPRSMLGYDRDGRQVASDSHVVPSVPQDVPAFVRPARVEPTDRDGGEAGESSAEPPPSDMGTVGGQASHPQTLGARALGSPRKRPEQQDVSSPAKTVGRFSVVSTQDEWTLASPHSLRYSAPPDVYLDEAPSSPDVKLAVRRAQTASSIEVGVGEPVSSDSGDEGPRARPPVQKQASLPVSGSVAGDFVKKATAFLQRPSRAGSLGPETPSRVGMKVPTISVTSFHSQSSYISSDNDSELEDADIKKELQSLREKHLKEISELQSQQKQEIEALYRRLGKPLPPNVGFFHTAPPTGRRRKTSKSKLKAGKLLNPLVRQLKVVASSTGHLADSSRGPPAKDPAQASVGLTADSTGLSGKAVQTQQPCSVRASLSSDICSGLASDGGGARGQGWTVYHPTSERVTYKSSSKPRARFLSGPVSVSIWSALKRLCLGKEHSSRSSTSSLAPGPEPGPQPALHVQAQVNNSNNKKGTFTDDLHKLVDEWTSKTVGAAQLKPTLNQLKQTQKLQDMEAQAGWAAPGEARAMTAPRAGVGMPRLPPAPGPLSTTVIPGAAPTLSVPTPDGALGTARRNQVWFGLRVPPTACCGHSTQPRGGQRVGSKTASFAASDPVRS

[18] = target: Tyrosine-protein kinase ZAP-70 (Homo sapiens) (UniProt P43403); assay: Inhibition of human ZAP-70 assessed as enzyme activity at 1 uM relative to control; parameters: scale not given: the % may be the effect or the level left
[19] = target: Serine/threonine-protein kinase MRCK beta (Homo sapiens) (UniProt Q9Y5S2); assay: Inhibition of human MRCKbeta assessed as enzyme activity at 1 uM relative to control; parameters: scale not given: the % may be the effect or the level left
[20] = target: Tyrosine-protein kinase Mer (Homo sapiens) (UniProt Q12866); assay: Inhibition of human Mer assessed as enzyme activity at 1 uM relative to control; parameters: scale not given: the % may be the effect or the level left
[21] = target: Serine/threonine-protein kinase Nek7 (Homo sapiens) (UniProt Q8TDX7); assay: Inhibition of human NEK7 assessed as enzyme activity at 1 uM relative to control; parameters: scale not given: the % may be the effect or the level left
[22] = target: Platelet-derived growth factor receptor alpha (Homo sapiens) (UniProt P16234); assay: Inhibition of human PDGFRalpha assessed as enzyme activity at 1 uM relative to control; parameters: scale not given: the % may be the effect or the level left
[23] = target: Protein kinase C iota type (Homo sapiens) (UniProt P41743); assay: Inhibition of human PKCiota assessed as enzyme activity at 1 uM relative to control; parameters: scale not given: the % may be the effect or the level left
[24] = target: Phosphorylase b kinase gamma catalytic chain, liver/testis isoform (Homo sapiens) (UniProt P15735); assay: Inhibition of human PhKgamma2 assessed as enzyme activity at 1 uM relative to control; parameters: scale not given: the % may be the effect or the level left
[25] = target: Serine/threonine-protein kinase pim-1 (Homo sapiens) (UniProt P11309); assay: Inhibition of human Pim-1 assessed as enzyme activity at 1 uM relative to control; parameters: scale not given: the % may be the effect or the level left
[26] = target: Serine/threonine-protein kinase PLK1 (Homo sapiens) (UniProt P53350); assay: Inhibition of human Plk1 assessed as enzyme activity at 1 uM relative to control; parameters: scale not given: the % may be the effect or the level left
[27] = target: Ephrin type-A receptor 8 (Homo sapiens) (UniProt P29322); assay: Inhibition of human EphA8 assessed as enzyme activity at 1 uM relative to control; parameters: scale not given: the % may be the effect or the level left
[28] = target: Ephrin type-B receptor 1 (Homo sapiens) (UniProt P54762); assay: Inhibition of human EphB1 assessed as enzyme activity at 1 uM relative to control; parameters: scale not given: the % may be the effect or the level left
[29] = target: Tyrosine-protein kinase Fer (Homo sapiens) (UniProt P16591); assay: Inhibition of human Fer assessed as enzyme activity at 1 uM relative to control; parameters: scale not given: the % may be the effect or the level left
[30] = target: Receptor-type tyrosine-protein kinase FLT3 (Homo sapiens) (UniProt P36888); assay: Inhibition of human Flt3 assessed as enzyme activity at 1 uM relative to control; parameters: scale not given: the % may be the effect or the level left
Chain of Receptor-type tyrosine-protein kinase FLT3 (Homo sapiens) (P36888 whole entry): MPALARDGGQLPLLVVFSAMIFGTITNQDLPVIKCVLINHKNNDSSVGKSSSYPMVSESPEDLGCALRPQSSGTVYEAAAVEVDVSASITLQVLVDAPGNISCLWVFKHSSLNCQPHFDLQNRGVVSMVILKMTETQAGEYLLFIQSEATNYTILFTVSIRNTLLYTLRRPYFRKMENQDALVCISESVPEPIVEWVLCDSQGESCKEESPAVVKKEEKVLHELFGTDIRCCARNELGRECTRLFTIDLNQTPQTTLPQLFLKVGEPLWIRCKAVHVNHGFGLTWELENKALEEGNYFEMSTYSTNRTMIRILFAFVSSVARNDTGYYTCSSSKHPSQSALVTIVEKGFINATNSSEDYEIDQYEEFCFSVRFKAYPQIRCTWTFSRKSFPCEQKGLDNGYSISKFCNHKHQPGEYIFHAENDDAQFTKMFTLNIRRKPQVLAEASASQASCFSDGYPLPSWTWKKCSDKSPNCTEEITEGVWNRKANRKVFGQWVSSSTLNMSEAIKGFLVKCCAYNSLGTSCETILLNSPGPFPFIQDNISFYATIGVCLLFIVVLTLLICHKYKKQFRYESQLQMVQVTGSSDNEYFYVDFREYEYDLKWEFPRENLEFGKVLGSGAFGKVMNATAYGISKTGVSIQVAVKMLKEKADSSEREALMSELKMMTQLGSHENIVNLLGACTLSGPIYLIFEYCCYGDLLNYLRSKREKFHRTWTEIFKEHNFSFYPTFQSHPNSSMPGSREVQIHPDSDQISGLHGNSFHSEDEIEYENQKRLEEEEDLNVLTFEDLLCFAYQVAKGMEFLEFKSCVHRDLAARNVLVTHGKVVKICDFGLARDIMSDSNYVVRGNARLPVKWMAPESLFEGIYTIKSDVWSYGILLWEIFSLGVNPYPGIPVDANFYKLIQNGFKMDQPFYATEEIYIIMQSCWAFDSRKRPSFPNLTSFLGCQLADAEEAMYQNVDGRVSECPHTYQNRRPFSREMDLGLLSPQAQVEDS

[31] = target: Tyrosine-protein kinase Fyn (Homo sapiens) (UniProt P06241); assay: Inhibition of human Fyn assessed as enzyme activity at 1 uM relative to control; parameters: scale not given: the % may be the effect or the level left
[32] = target: Homeodomain-interacting protein kinase 2 (Homo sapiens) (UniProt Q9H2X6); assay: Inhibition of human HIPK2 assessed as enzyme activity at 1 uM relative to control; parameters: scale not given: the % may be the effect or the level left
[33] = target: Mitogen-activated protein kinase 9 (Homo sapiens) (UniProt P45984); assay: Inhibition of human JNK2alpha2 assessed as enzyme activity at 1 uM relative to control; parameters: scale not given: the % may be the effect or the level left
[34] = target: Mitogen-activated protein kinase 10 (Homo sapiens) (UniProt P53779); assay: Inhibition of human JNK3 assessed as enzyme activity at 1 uM relative to control; parameters: scale not given: the % may be the effect or the level left
[35] = target: LIM domain kinase 1 (Homo sapiens) (UniProt P53667); assay: Inhibition of human LIMK1 assessed as enzyme activity at 1 uM relative to control; parameters: scale not given: the % may be the effect or the level left
[36] = target: MAP kinase-activated protein kinase 3 (Homo sapiens) (UniProt Q16644); assay: Inhibition of human MAPKAP-K3 assessed as enzyme activity at 1 uM relative to control; parameters: scale not given: the % may be the effect or the level left
[37] = target: MAP kinase-activated protein kinase 5 (Homo sapiens) (UniProt Q8IW41); assay: Inhibition of human MAPKAP-K5 assessed as enzyme activity at 1 uM relative to control; parameters: scale not given: the % may be the effect or the level left
[38] = target: Misshapen-like kinase 1 (Homo sapiens) (UniProt Q8N4C8); assay: Inhibition of human MINK assessed as enzyme activity at 1 uM relative to control; parameters: scale not given: the % may be the effect or the level left
[39] = target: Dual specificity mitogen-activated protein kinase kinase 4 (Mus musculus) (UniProt P47809); assay: Inhibition of mouse MKK4 assessed as enzyme activity at 1 uM relative to control; parameters: scale not given: the % may be the effect or the level left

SMILES: CCCS(=O)(=O)Nc1cccc(Nc2ccc3ncn(C)c(=O)c3c2)c1C#N
- Papp A→B [1]: > 8 ×10⁻⁶ cm/s
- Vd [2]: 0.25 L/kg
- inhibition in vivo at 30 mg/kg [3]: 99%
- Activity [4]: 109%
- Activity [5]: 104%
- Activity [6]: 95%
- Activity [7]: 102%
- Activity [8]: 101%
- Activity [9]: 99.5%
- Activity [10]: 148%
- Activity [11]: 93%
- Activity [12]: 120%
- Activity [13]: 99%
- Activity [14]: 97%
- Activity [15]: 101%
- Activity [16]: 83.5%
- Activity [17]: 100%
- Activity [18]: 112%
- Activity [19]: 104%
- Activity [20]: 89.5%
- Activity [21]: 110%
- Activity [22]: 102%
- Activity [23]: 102%
- Activity [24]: 112%
- Activity [25]: 147%
- Activity [26]: 90.5%
- Activity [27]: 96%
- Activity [28]: 101%
- Activity [29]: 114%
- Activity [30]: 102%
- Activity [31]: 91.5%
- Activity [32]: 100%
- Activity [33]: 106%
- Activity [34]: 104%
- Activity [35]: 85%
- Activity [36]: 121%
- Activity [37]: 104%
- Activity [38]: 106%
- Activity [39]: 128%
